What was measured:
[1] = biological target: MOPC315 Fv variant Fv(Y34FL), Tyr 34L to Phe; test: Fv fluorescence titration with DNP-L-lysine; format: binding, murine; conditions: pH 6.8; ±SE
Procedure: (§1) FIG. 21 is a plot of Fv fluorescence titration with DNP-L-lysine as described in Example 6 of the Experimental section herein. Fv(315)(·),Fv(Y34FL)(Δ), or Fv(Y34HL)(o)(400 μl, 450-500 nM, ε280 nm=37,500 M^-1) in 100 mM potassium phosphate, pH 6.8 (buffer A), was titrated with solutions of 10-100 μM DNP-L-lysine (ε360 nm =17,500 M^-1) in buffer A while monitoring the protein fluorescence (excitation: 282 nm; emission: 343 nm). Fluorescence was corrected for the change in volume. Dissociation constants (KD) were determined by a modified Scatchard analysis.
(§2) The binding of ε-2,4-DNP-(L)-lysine (DNP Lys) by mutant wild type Fv proteins was assessed by titration of the intrinsic fluorescence of MOPC315 Fv (Hochman et al. (1973) supra; Hochman et al. (1977) supra), as shown in FIG. 21. […] DNP-aminoalkyl carboxylic acids of different lengths 6-9 (FIG. 16) were used to probe the location of the positively charged imidazole ring with respect to the DNP site in Fv(Y34HL) at pH 6.0.

[2] = biological target: MOPC315 Fv variant Fv(Y34HL), Tyr 34L to His; test: Fv fluorescence titration with DNP-L-lysine; format: binding, murine; conditions: pH 6.8; ±SE
Procedure: as §1, §2

[3] = biological target: T1, MOPC315 Fv, wild type, Fv(315) (Mus musculus, UniProt P01729+P01822); test: Fv fluorescence titration with DNP-L-lysine; format: binding, murine; conditions: pH 6.8; ±SE
T1 construct: The Fv fragment (26 kD) is a heterodimer consisting of two peptides, VH (14 kD) and VL (12 kD); made in house; host or cells: MOPC315 myeloma ascites (Balb/c mice), IgA cleaved with pepsin
Procedure: as §1, §2

[4] = biological target: T2, MOPC315 Fv variant Fv(Y34HL), Tyr 34L to His (Mus musculus, UniProt P01729+P01822, Y53H); test: Hydrolysis of DNP coumarin esters 1-3 by Fv; format: biochemical, murine; conditions: for kcat (Table 2, Fv(Y34HL)): pH 6.8, SE (n = 3)
T2 construct: Antibody-derived VH was prepared by denaturing ion exchange chromatography of authentic MOPC315 Fv, obtained from pepsin digestion of purified IgA; lambda cII fusion with Factor Xa site (IleGluGlyArg) (N, cleaved yes); made in house; host or cells: VL: E. coli MZ1 (cII fusion, inclusion bodies); VH: pepsin-cleaved MOPC315 IgA from mouse ascites
Procedure: (§3) FIG. 22 is a Lineweaver-Burke plot of initial rate data obtained for the hydrolysis of 1 as described in Example 6 of the Experimental section herein. Four μl of a 100-fold concentrated solution of substrate 1 in DMSO was added to the 400 μl of Fv (115 nM) in buffer A while monitoring 7-hydroxycoumarin fluorescence at 25° C. (excitation:355nm; emission: 457 nm). A standard of 7-hydroxycoumarin was added at the completion of each assay to assess quenching of coumarin fluorescence by DNP at high substrate concentrations. The buffer background rate was subtracted from the initial rates. Each point represents the average velocity of at least duplicate experiments. Factor X, Factor Xa, or Russell's viper venom had no hydrolytic activity towards 1.
(§4) The ability of wild type and mutant Fvs to hydrolyze esters 1-3 was assayed by measuring the rate of coumarin release fluorimetrically at pH 6.8 (Pollack et al. (1988) supra; Pollack (1989) supra). […] Under these conditions, Fv(Y34HL) turns over at least 11 times and still retains 44% of its activity. The loss of activity is likely due to the accumulation of the inhibitory reaction product 8. […] Ester 2 was a poor substrate (kcat (2)=0.015 min^-1); and the hydrolysis of 3 was not accelerated (kcat (3)<0.005 min^-1). […] The initial rate of hydrolysis of 1 by Fv(Y34HL) at pH 6.8 is approximately 45-fold faster than the reaction with either […] (Table 2). At pH 8.7, the reactivity of Fv(Y34HL) and Fv(315) both increase, but differentially (v[Fv(Y34HL ]/v[Fv(315)]=3.3, at 10 μM 1). Under these conditions Fv(Y34HL) catalytically hydrolyzes 1 while Fv(315) reacts stoichiometrically. The increased reactivity of Fv(315) at higher pH may be due to deprotonation of the tyrosine hydroxyl and subsequent transesterification to form a relatively stable phenol ester.

[5] = system: antibody 15F1-3B1 (IgG, thymine dimer specific); test: Antibody-sensitized photocleavage of thymine dimer; format: biochemical, Balb/c mice
Procedure: Solutions of carboxymethylthymine dimer 1 were irradiated with 300 nm light in the presence of antibody; and dimer cleavage was assayed spectrophotometrically as follows. Deoxygenated solutions of thymine dimer (5-300 μM) and antibody (3 μM) in 100 mM NaCl, 10 mM phosphate buffer, pH 7.5 were irradiated at 18°-20° C. in a 1 mL quartz cuvette. All photolysis experiments were performed with a 1000 W high pressure Hg-Xe lamp equipped with a Photon Technologies International, Inc. Model Q5001 Quantacount electronic actinometer and a diffraction grating monochromator blazed at 500 nm. A bandpass of 3 nm was used for both kinetic and photon counting experiments. […] Monomer formation was assayed spectrophotometrically at fixed time intervals (λmax =272 nm, log ε=3.90).

[6] = biological target: T3, MOPC315 Fab, thiolated (affinity-labeled with 2 and cleaved; free thiol at lysine 52H) (Mus musculus, UniProt P01729+P01822+P01878); test: Thiolysis of DNP coumarin ester by thiolated Fab; format: biochemical, murine
T3 construct: made in house; host or cells: Fab by papain digestion of reduced and alkylated MOPC315 IgA (murine myeloma)
Procedure: Cleavage of DNP coumarin esters 14 and 15 by the thiol-containing antibodies was assayed in the presence of 0.1M NaCl, 50 mM sodium phosphate, pH 7.0, with 24 μM dithiothreitol at 10° C. The release of free coumarin was quantitated fluorometrically, exciting at 355 nm and measuring emission at 455 nm. The S-thiopyridyl Fab was first dialyzed against assay buffer, 30 min. prior to the assays, an aliquot of the thiopyridyl Fab (0.15 mg in 0.19 ml) was reduced with 3.8 mM dithiothreitol at 20° C. For each assay, reduced, thiolated Fab (15 μg in 18.8 μl) was diluted with assay buffer (2.95 ml) so that the net concentrations of thiolated Fab and of dithiothreitol were 0.1 μM and 24 μM, respectively. After equilibrating, the substrate was added (30 μl of a stock solution in acetonitrile) and the solution mixed for 10 sec. before monitoring fluorescence change. Antibody rates were corrected by subtracting the rate of cleavage in the absence of Fab.
The reaction kinetics are consistent with the formation of a Michaelis complex (FIG. 6). […] Neither the uncleaved affinity-labeled antibody nor the iodoacetamide-alkylated antibody accelerated the rate of the thiolysis reaction above the background rate. The stoichiometry of product release corresponded to 1.0 coumarin to 1.0 Fab-SH. […]

underivatized MOPC 315 = test: Fluorescence quenching binding in PBS; design: species or system murine
Procedure: The hydrolysis of coumarin esters 1a-1d (FIG. 9) by the semisynthetic antibody was assayed in the presence and absence of 1 μM derivatized Fab at varying pH, at 30° C. (Morpholineethanesulfonic acid (100 mM) as used as the buffer in the range of pH 5 to 7. Sodium phosphate (100 mM) was used in the range of pH 6 to 8 and tris-HCl (100 mM) was used in the range of pH 7 to 9.) The release of free coumarin was quantitated fluorometrically, exciting at 355 nm and measuring emission at 455 nm. Antibody rates were corrected by subtracting the rate of cleavage in the absence of antibody. […] This value is almost identical to the KD (5 μM) for the binding of N-DNP-glycine to underivatized MOPC 315, (determined by fluorescence quenching in PBS). […] At pH>8, the unmodified Fab slightly accelerates the cleavage of ester 1b in a stoichiometric reaction, presumably involving modification of an amino acid side chain near the binding site. However, this reaction is not observed in the catalysis by the imidazole-derivatized antibody, where the reactive antibody side-chain is probably inaccessible. The catalytic activity of the semisynthetic antibody is destroyed by treatment with diethylpyrocarbonate, an imidazole-specific reagent. […]

[7] = system: monoclonal antibody (IgG) generated against hapten 2 (benzylamine 2); test: Antibody-catalyzed elimination of HF from β-fluoroketone; format: biochemical, Balb/c mice
Procedure: Solutions of substrate 1 were incubated with 2 μM Ig at 37° C. in 10 mM Bis-tris-HCl, 100 mM NaCl pH 6.0, at substrate concentration between 50 and 500 μM. Protein molarity was determined by absorbance at 280 nm using ε^0.1% =1.37 and a molecular weight of 150 kD for IgG. Elimination was followed spectrophotometrically. […] One of these antibodies was characterized further. […] The kinetics of the reaction are consistent with the simple Michaelis-Menten rate expression: [drawing 3] These values afford a kcat /kuncat of 1480 at pH 6.0.
Values of Ki were determined at 10 mM Bis-tris-HCl, 100 mM NaCl, pH 6.0 (37° C.). Substrate concentrations were 200 and 500 μM, Ig concentration was 2 μM, hapten concentration was […] to 1 μM.
The pH dependence of kcat was also determined under the same reaction conditions. Values of kcat are as follows: kcat =0.083 min^-1 at pH 5.5, kcat =0.11 at pH 5.75, kcat =0.188 at pH 6.0, kcat =0.3 at pH 6.5 and kcat =0.43 at pH 7.5. A plot of kcat vs. kcat [H^+ ] gives a pKa of 6.1 for the active site base. It is very likely that this corresponds to a high pKa carboxylate based on the strategy for generating the antibody. Chemical modification experiments with diazoacetamide support this hypothesis.

[8] = biological target: T4, MOPC315 Fab, thiolated (labeled with bromoketone 4; tyrosine 34L derivatized) (Mus musculus, UniProt P01729+P01822+P01844); test: Fluorescence quenching binding of substrate by thiolated Fab; design: species or system murine
T4 construct: made in house; host or cells: Fab by papain digestion of reduced and alkylated MOPC315 IgA (murine myeloma)
Source text: The reaction kinetics are consistent with the formation of a Michaelis complex (FIG. 6). […] Neither the uncleaved affinity-labeled antibody nor the iodoacetamide-alkylated antibody accelerated the rate of the thiolysis reaction above the background rate. The stoichiometry of product release corresponded to 1.0 coumarin to 1.0 Fab-SH. […] However, the introduction of both a thiol and a general base into the label may lead to a catalytic system (Bruice (1959) J. Am. Chem. Soc. 81:5444 and Street et al. (1985) J. Am. Chem. Soc. 107:7669).

[9] = biological target: T1, MOPC315 Fv, wild type, Fv(315); test: Hydrolysis of DNP coumarin esters 1-3 by Fv; format: biochemical, murine; conditions: pH 6.8
Procedure: as §3, §4

[10] = substrate: O=C(CCCCNc1ccc([N+](=O)[O-])cc1[N+](=O)[O-])Oc1ccc2ccc(=O)oc2c1; test: Hydrolysis of DNP coumarin esters 1-3 by Fv; format: biochemical, murine; conditions: other: pH 6.8, 25° C.
Procedure: as §3, §4

[11] = substrate: O=C(CCNc1ccc([N+](=O)[O-])cc1[N+](=O)[O-])Oc1ccc2ccc(=O)oc2c1; test: Hydrolysis of DNP coumarin esters 1-3 by Fv; format: biochemical, murine; conditions: other: pH 6.8, 25° C.
Procedure: as §3, §4

T1 sequence (P01729 20-129, one chain of several): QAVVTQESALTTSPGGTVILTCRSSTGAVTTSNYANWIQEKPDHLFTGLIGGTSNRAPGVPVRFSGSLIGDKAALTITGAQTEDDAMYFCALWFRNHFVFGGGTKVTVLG
T3 sequence (P01822+P01878 fused): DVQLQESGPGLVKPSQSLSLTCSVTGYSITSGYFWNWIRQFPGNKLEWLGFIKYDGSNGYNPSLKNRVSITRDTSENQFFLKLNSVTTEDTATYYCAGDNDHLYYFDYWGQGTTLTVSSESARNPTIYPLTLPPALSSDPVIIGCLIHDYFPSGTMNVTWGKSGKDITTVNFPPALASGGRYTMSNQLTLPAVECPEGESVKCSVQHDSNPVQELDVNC
T3 sequence (P01729 20-129): as the sequence (P01729 20-129, one chain of several) above
T4 sequence (P01729+P01844 fused, one chain of several): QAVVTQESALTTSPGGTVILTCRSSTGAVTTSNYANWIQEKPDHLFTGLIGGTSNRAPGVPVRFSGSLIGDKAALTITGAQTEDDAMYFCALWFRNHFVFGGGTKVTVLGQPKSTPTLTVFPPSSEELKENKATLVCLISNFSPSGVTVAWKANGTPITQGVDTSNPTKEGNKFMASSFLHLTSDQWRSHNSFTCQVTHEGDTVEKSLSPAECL

N[C@@H](CCCCNc1ccc([N+](=O)[O-])cc1[N+](=O)[O-])C(=O)O [DNP-L-lysine, ε-2,4-DNP-(L)-lysine]
Kd [1]: 270 ± 30 nM | Kd [2]: 1400 ± 300 nM | Kd [3]: 270 ± 30 nM | Ki [4]: 3800 ± 1500 nM

C[C@]12C(=O)NC(=O)N(CC(=O)O)[C@H]1[C@H]1N(CC(=O)O)C(=O)NC(=O)[C@]12C [dimer 1, carboxymethylthymine-(cis,syn)cyclobutane dimer]
kcat /Km ([5]; 300 nm irradiation, pH 7.5): 3000 M⁻¹ s⁻¹ | Km ([5]; 300 nm irradiation, pH 7.5, 18°-20° C.): 6.5 µM | kcat ([5]; 300 nm, incident flux 1.26×10^-7 einsteins min^-1, pH 7.5, 18°-20° C.): 0.02 s⁻¹

O=C(CCNc1ccc([N+](=O)[O-])cc1[N+](=O)[O-])Oc1ccc2ccc(=O)oc2c1 [compound 3]
kcat (Table 2, Fv(Y34HL)) [4]: < 0.005 min

O=C(O)CNc1ccc([N+](=O)[O-])cc1[N+](=O)[O-] [DNP-glycine, N-DNP-glycine]
Ki [6]: 8000 nM | Kd (underivatized MOPC 315): 5000 nM

CC(=O)CC(F)c1ccc([N+](=O)[O-])cc1 (racemic) [substrate 1, (R,S) 4-Fluoro-4-p-nitro phenylbutan-2-one]
kcat ([7]; pH 5.5): 0.00138 s⁻¹ | kcat ([7]; pH 5.75): 0.00183 s⁻¹ | Km ([7]; pH 6.0, 37° C.): 182 µM | kcat ([7]; pH 6.0, 37° C.): 0.00313 s⁻¹ | kcat ([7]; pH 6.5): 0.005 s⁻¹ | kcat ([7]; pH 7.5): 0.00717 s⁻¹

CC(=O)Oc1ccc([N+](=O)[O-])cc1[N+](=O)[O-] [DNP-acetate]
binding of substrate (fluorescence quenching) [8]: did not bind the substrate with appreciable affinity

O=C(CCCCCNc1ccc([N+](=O)[O-])cc1[N+](=O)[O-])Oc1ccc2ccc(=O)oc2c1 [compound 2]
kcat (Table 2, Fv(315)) [9]: 0.005 min | kcat (Table 2, Fv(Y34HL)) [4]: 0.015 min

B1: MOPC315 Fv variant Fv(Y34HL), Tyr 34L to His (Mus musculus; Y53H) (protein)
chain 1: QAVVTQESALTTSPGGTVILTCRSSTGAVTTSNHANWIQEKPDHLFTGLIGGTSNRAPGVPVRFSGSLIGDKAALTITGAQTEDDAMYFCALWFRNHFVFGGGTKVTVLGQPKST
chain 2: DVQLQESGPGLVKPSQSLSLTCSVTGYSITSGYFWNWIRQFPGNKLEWLGFIKYDGSNGYNPSLKNRVSITRDTSENQFFLKLNSVTTEDTATYYCAGDNDHLYYFDYWGQGTTLTVSS
notes: Antibody-derived VH was prepared by denaturing ion exchange chromatography of authentic MOPC315 Fv, obtained from pepsin digestion of purified IgA; lambda cII fusion with Factor Xa site (IleGluGlyArg) (N, cleaved yes); made in house; host or cells: VL: E. coli MZ1 (cII fusion, inclusion bodies); VH: pepsin-cleaved MOPC315 IgA from mouse ascites
Km [10]: 2.2 ± 0.2 µM | kcat [10]: 0.003 ± 0.0005 s⁻¹ | kcat/Km [10]: 8.2×10^4 m^-1 min^-1 | kcat [11]: 8.3e-05 s⁻¹

— patent publication US5215889A, “Catalytic and reactive polypeptides and methods for their preparation and use” (The Regents of the University of California, priority 1989, dated 1993)
